In US11116725B2, “Nanoparticles carrying antibiotics” (UNIVERSITY OF SOUTH FLORIDA, priority 2017, dated 2021):
Values after ≈ are worked out from the molar mass of the structure shown.

Columns and labels:
[1] = Solubility in organic solvents; format: physicochemical
Procedure: This method was attempted using methanol, ethanol, ethyl acetate, and dichloromethane. […] However, there was a critical issue that resulted with the polymerization procedure. Typically, organics were stirred at 75° C., then the surfactant and water were added. This would cause the dichloromethane to rapidly evaporate.

Escherichia coli (K12) = test: 96-well plate broth assay, minimum inhibitory concentration (MIC); format: cell-based; details: triplicate, 37° C., 16-20 hours, concentration as N-acryloylciprofloxacin, read-out: MIC vs E. coli (K12)
Procedure: (§1) Each assay was done in triplicate.
(§2) The original stock emulsion was diluted using the Trypticase Soy Broth solution to an initial concentration of 1.28 mg/ml of the N-acryloylciprofloxacin, then serial diluted with TSB to half the concentration each time. A volume of 10 μl of each emulsion dilution was added to a well in series, resulting in a final concentration run of 64 μg/ml to 0.012 μg/ml. The MIC was done in triplicates for each bacterium, with ciprofloxacin hydrochloride being used as a positive control and a blank of broth medium was used as a negative control.
(§3) Bacteria were grown overnight at 37° C. on an agar plate composed of BBL TSA II Trypticase Soy Agar (TSA) and BBL Trypticase Soy Broth (TSB) in a 1:2 ratio at 4.4% concentration. A broth solution of 2.4% TSB was inoculated using the bacteria from the agar plates, and incubated at 37° C. to reach a 0.5 McFarland standard. The bacteria were then further diluted by a factor of 1000 using a broth solution of 2.4% TSB, and 190 μl of the diluted bacterial solution was transferred by micropipette into each well.

[2] = test system: Staphylococcus aureus (ATCC 25923); test: as above; format: cell-based; details: ATCC25923, triplicate, 37° C., 16-20 hours, concentration as N-acryloylciprofloxacin, read-out: MIC vs S. aureus (ATCC 25923)
Procedure: as §1, §2, §3

Row | Structure (SMILES) | solubility in dichloromethane [1] | MIC (Escherichia coli (K12)) [µg/mL] | MIC [2] [µg/mL]
1 | C=CC(=O)N1CCN(c2cc3c(cc2F)c(=O)c(C(=O)O)cn3C2CC2)CC1 [N-acryloylciprofloxacin] | Up to 500 mg/ml |  | 
2 | O=C(O)c1cn(C2CC2)c2cc(N3CCNCC3)c(F)cc2c1=O [Control Ciprofloxacin, ciprofloxacin] |  | 0.012 (≈ 0.0362 µM) | 0.5 (≈ 1.51 µM)
